Experimental data published in ChEMBL document CHEMBL1154669, “5-Aryl indanones and derivatives as non-steroidal progesterone receptor modulators” (Bioorg Med Chem Lett, 2009).

How the values were obtained:
Progesterone receptor [1] = biological target: T1, Progesterone receptor (Homo sapiens, UniProt P06401); assay: Inhibition of progesterone receptor in human T47D cells assessed as progesteron-induced alkaline phosphatase activity; assay type: cell-based
T1 sequence (P06401 whole entry): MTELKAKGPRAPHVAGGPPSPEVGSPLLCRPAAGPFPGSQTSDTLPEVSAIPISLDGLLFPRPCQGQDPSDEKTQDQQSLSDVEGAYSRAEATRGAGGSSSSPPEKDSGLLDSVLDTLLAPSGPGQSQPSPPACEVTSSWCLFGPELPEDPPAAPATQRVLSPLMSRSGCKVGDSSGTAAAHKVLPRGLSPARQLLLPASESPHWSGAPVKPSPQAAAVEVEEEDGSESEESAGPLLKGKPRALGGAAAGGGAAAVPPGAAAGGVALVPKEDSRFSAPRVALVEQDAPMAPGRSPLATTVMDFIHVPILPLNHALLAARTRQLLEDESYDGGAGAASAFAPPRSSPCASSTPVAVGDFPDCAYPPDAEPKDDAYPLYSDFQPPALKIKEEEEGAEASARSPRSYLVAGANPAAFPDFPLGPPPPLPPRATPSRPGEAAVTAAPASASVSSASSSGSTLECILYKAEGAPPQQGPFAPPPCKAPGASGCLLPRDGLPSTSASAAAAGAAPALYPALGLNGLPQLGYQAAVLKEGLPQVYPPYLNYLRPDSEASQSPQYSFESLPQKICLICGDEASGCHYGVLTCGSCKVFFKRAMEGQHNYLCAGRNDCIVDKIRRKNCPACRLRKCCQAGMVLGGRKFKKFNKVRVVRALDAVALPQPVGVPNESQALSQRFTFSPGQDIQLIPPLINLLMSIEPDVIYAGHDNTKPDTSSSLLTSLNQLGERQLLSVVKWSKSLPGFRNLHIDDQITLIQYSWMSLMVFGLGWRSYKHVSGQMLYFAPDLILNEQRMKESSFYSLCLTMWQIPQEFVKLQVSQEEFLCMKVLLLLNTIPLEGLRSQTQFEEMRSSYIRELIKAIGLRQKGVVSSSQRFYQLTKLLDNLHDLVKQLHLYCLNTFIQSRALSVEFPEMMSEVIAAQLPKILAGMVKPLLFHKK

Progesterone receptor [2] = biological target: T1, Progesterone receptor; assay: Agonist activity at progesterone receptor in human T47D cells assessed as alkaline phosphatase activity; assay type: functional, cell-based

| SMILES | IC50 (Progesterone receptor [1]) [nM] | EC50 (Progesterone receptor [2]) [nM] |
| --- | --- | --- |
| Cc1cccc(-c2ccc3c(c2)C(C)(C)C/C3=N\O)c1 | 316 |  |
| CC1(C)C/C(=N\O)c2ccc(-c3cccc(C#N)c3)cc21 | 317 |  |
| CC1C/C(=N/O)c2ccc(-c3ccc(C#N)n3C)cc21 (configuration not stated) | 65 | > 3000 |
| Cn1c(C#N)ccc1-c1ccc2c(c1)CCC2=O | 34 | > 3000 |
| C#CCC1(O)CC(C)(C)c2cc(-c3ccc(C#N)n3C)ccc21 (configuration not stated) | 3 | > 3000 |
| Cn1c(C#N)ccc1-c1ccc2c(c1)CC/C2=N/O | 132 | > 3000 |
| CC1CC(O)c2ccc(-c3ccc(C#N)n3C)cc21 (configuration not stated) | 18 | > 3000 |
| Cn1c(C#N)ccc1-c1ccc2c(c1)C(C)(C)CC2(C)O (configuration not stated) |  | 1 |
| Cn1c(C#N)ccc1-c1ccc2c(c1)C(C)(C)CC2O (configuration not stated) |  | 19 |
| CC1(C)CC(=O)c2ccc(-c3cccc(C#N)c3)cc21 | 195 |  |
| CC1(C)C/C(=N\O)c2ccc(-c3cccc(Cl)c3)cc21 | 490 |  |
| CC1(C)CC(=O)c2ccc(-c3ccc(Cl)c(Cl)c3)cc21 | 79 |  |
| Cn1c(C#N)ccc1-c1ccc2c(c1)CCC2O (configuration not stated) | 10 | > 3000 |
| Cn1c(C#N)ccc1-c1ccc2c(c1)C(C)(C)C/C2=N/O | 14 | > 3000 |
| CCC1(O)CC(C)(C)c2cc(-c3ccc(C#N)n3C)ccc21 (configuration not stated) |  | 2 |
